Read-outs that look alike come from different tables or passages of the source. Numbered stars: 1 amine (or outer) side, 2 acyl side, 3 side chain; on linkers, the order of the positions; unused ones are H or OH. Square brackets hold non-standard residues; d marks the D form. Peptide text beside a SMILES is read from it. * marks the point of attachment. ξ: configuration not given here. X1 = CC[C@H](C)[C@H]([C@@H](CC(=O)[*:2])OC)N(C)[*:1]; Phe(4-NO2) = N[C@@H](Cc1ccc([N+](=O)[O-])cc1)C(=O)O; Dolaproine = CO[C@@H]([C@@H]1CCCN1)[C@@H](C)C(=O)O; ξDil = CC[C@H](C)C([C@@H](CC(=O)[*:2])OC)N(C)[*:1]; Dil = CC[C@H](C)[C@H](NC)[C@@H](CC(=O)O)OC; Phe(4-NH2) = Nc1ccc(C[C@H](N)C(=O)O)cc1; NMe2Val = CC(C)[C@@H](C(=O)*)N(C)C; X2 = C[C@@H](N*)[C@@H](O)c1ccccc1; NMeV = CN[C@H](C(=O)O)C(C)C; ξF = NC(Cc1ccccc1)C(=O)O; ξV = CC(C)C(N)C(=O)O
Test system: FaDu cells
Assay: Potency of AF derivatives: FaDu cell viability by the MTT method
Type: cell-based
Details: for IC50: exposure to toxins for 120 hours, MTT; for potency in FaDu cells compared with MMAE and auristatin F (AF): statement in words on Table 2
Procedure: FaDu cells were seeded in Corning CellBIND 96-well plates at densities of 2500 cells/well. […] Then, the cells were rinsed once and assayed for cell viability with the MTT method. The old medium was aspirated and 100 uL of 0.5 mg/mL MTT containing medium was added into each well. After incubation for 4 hours, the MTT reagent was removed and the precipitate was dissolved in DMSO. The photometry intensity of the cells was measured by the microplate reader (Multiskan Ascent, Thermo Labsystems) of absorbance wavelength at 570 nm. Cell viability was calculated by the following equation. Cell Viability (%)=(Ins−Inb)/(Inc−Inb)×100%
In this equation, “Ins” is the photometry intensity of the cells incubated with a given toxin, “Inb” is the intensity of a blank well without cell seeding, and “Inc” is the intensity of the cells incubated with the culture medium only (positive control).

| Compound | IC50 (n=6) | IC50 (Homo sapiens, FaDu, 120 h, n=6) | potency in FaDu cells compared with MMAE and auristatin F (AF) | IC50 (n=6, read-out: IC50) |
| --- | --- | --- | --- | --- |
| CC[C@H](C)C([C@@H](CC(=O)N1CCC[C@H]1[C@H](OC)[C@@H](C)C(=O)NC(Cc1ccc(N)cc1)C(=O)Nc1cnc2ccccc2c1)OC)N(C)C(=O)C(NC(=O)[C@H](C(C)C)N(C)C)C(C)C (some centres unmarked) [3AQ-AAF] | 490 pM |  |  |  |
| CC[C@H](C)C([C@@H](CC(=O)N1CCC[C@H]1[C@H](OC)[C@@H](C)C(=O)NC(Cc1ccc(N)cc1)C(=O)Nc1cnc2ccccc2c1)OC)N(C)C(=O)C(NC(=O)[C@H](C(C)C)N(C)C)C(C)C (some centres unmarked) [3AQ-ANF] |  | 350 pM | comparable to the well-known toxin MMAE |  |
| CC[C@H](C)[C@@H]([C@@H](CC(=O)N1CCC[C@H]1[C@H](OC)[C@@H](C)C(=O)N[C@@H](Cc1ccccc1)C(=O)O)OC)N(C)C(=O)[C@@H](NC(=O)[C@H](C(C)C)N(C)C)C(C)C [AF, auristatin F, reference compound] (NMe2Val-V[Dil][Dolaproine]F-OH) |  |  |  | 15200 pM |
| CC[C@H](C)[C@H]([C@@H](CC(=O)N1CCC[C@H]1[C@H](OC)[C@@H](C)C(=O)NC(Cc1ccccc1)C(=O)N[C@@H](Cc1ccc(N)cc1)C(=O)O)OC)N(C)C(=O)[C@@H](NC(=O)[C@H](C(C)C)N(C)C)C(C)C (some centres unmarked) [APEA(COOH)-AF] (NMe2Val-V[X1][Dolaproine][ξF][Phe(4-NH2)]-OH) |  | > 100000 pM | least potency |  |
| CC[C@H](C)[C@H]([C@@H](CC(=O)N1CCC[C@H]1[C@H](OC)[C@@H](C)C(=O)NC(Cc1ccccc1)C(=O)N[C@@H](Cc1ccc(N)cc1)C(=O)OC)OC)N(C)C(=O)[C@@H](NC(=O)[C@H](C(C)C)N(C)C)C(C)C (some centres unmarked) [APEA(COOMe)-AF] (NMe2Val-V[X1][Dolaproine][ξF][Phe(4-NH2)]-OMe) |  | 930 pM | comparable to the well-known toxin MMAE |  |
| CC[C@H](C)C([C@@H](CC(=O)N1CCC[C@H]1[C@H](OC)[C@@H](C)C(=O)NC(Cc1ccccc1)C(=O)NCCc1ccc(N)cc1)OC)N(C)C(=O)C(NC(=O)[C@H](C(C)C)N(C)C)C(C)C (some centres unmarked) [APEA-AF] |  | 700 pM | comparable to the well-known toxin MMAE |  |
| CC[C@H](C)[C@@H]([C@@H](CC(=O)N1CCC[C@H]1[C@H](OC)[C@@H](C)C(=O)N[C@H](C)[C@@H](O)c1ccccc1)OC)N(C)C(=O)[C@@H](NC(=O)[C@@H](NC)C(C)C)C(C)C [MMAE, reference compound] (H-[NMeV]V[Dil][Dolaproine]-X2) |  |  |  | 380 pM |
| CC[C@H](C)C([C@@H](CC(=O)N1CCC[C@H]1[C@H](OC)[C@@H](C)C(=O)NC(Cc1ccccc1)C(=O)N[C@@H](Cc1ccc([N+](=O)[O-])cc1)C(=O)O)OC)N(C)C(=O)C(NC(=O)[C@H](C(C)C)N(C)C)C(C)C (some centres unmarked) [NPEA(COOH)-AF] (NMe2Val-[ξV][ξDil][Dolaproine][ξF][Phe(4-NO2)]-OH) |  | 23200 pM |  |  |
| CC[C@H](C)C([C@@H](CC(=O)N1CCC[C@H]1[C@H](OC)[C@@H](C)C(=O)NC(Cc1ccccc1)C(=O)N[C@@H](Cc1ccc([N+](=O)[O-])cc1)C(=O)OC)OC)N(C)C(=O)C(NC(=O)[C@H](C(C)C)N(C)C)C(C)C (some centres unmarked) [NPEA(COOMe)-AF] (NMe2Val-[ξV][ξDil][Dolaproine][ξF][Phe(4-NO2)]-OMe) |  | 440 pM | comparable to the well-known toxin MMAE |  |
| CC[C@H](C)C([C@@H](CC(=O)N1CCC[C@H]1[C@H](OC)[C@@H](C)C(=O)NC(Cc1ccc(N)cc1)C(=O)NCCc1ccccc1)OC)N(C)C(=O)C(NC(=O)[C@H](C(C)C)N(C)C)C(C)C (some centres unmarked) [PEA-AAF] | 390 pM |  |  |  |
| CC[C@H](C)C([C@@H](CC(=O)N1CCC[C@H]1[C@H](OC)[C@@H](C)C(=O)NC(Cc1ccc(N)cc1)C(=O)NCCc1ccccc1)OC)N(C)C(=O)C(NC(=O)[C@H](C(C)C)N(C)C)C(C)C (some centres unmarked) [PEA-ANF] | 1260 pM |  | comparable to the well-known toxin MMAE |  |
